# Where a name gives a salt, the structure may show the parent alone. Read-outs that look alike come from different tables or passages of the source.
# Experiments:
# tumor cells = assay: Testing of antitumor effect (overall)
# [1] = test system: neutrophilic granulocytes, lymphocytes and macrophages; assay: Preliminary rapid test: immunostimulant effect; assay type: in vivo, CFLP male mice; settings: oral, one-tenth of LD50; 24 hours
# [2] = test system: neutrophylic granulocytes and limphocytes; settings: mouse, in vivo, po
# NK-yl ascites tumor = assay: Combinations with known cytostatic agents in NK-ly ascites tumor; assay type: in vivo, CFLP mice; settings: with cyclophosphamide, carnomustine, degranol, dibromo dulcitol or dibromo mannitol
# human lymphocytes [3] = assay: Mitogen-induced blastos transformation (PHA, Con A); assay type: cell-based
# Method: Lymphocytes were cultivated in a TC 199 liquid nutrient medium completed by 10% decomplemented calf serum, antibiotics and […] HEPES (Serva). 200 μl of a cell suspension comprising 2.10^5 lymphocytes were placed on a microplate (manufacturer: Sterilin Great Britain); five parallels were carried out each.
# 2 and 10 μg/ml, respectively of Phytohaemagglutinine (Leucoagglutinine; manufacturer Pharmacie Sweden) and 25 μg/ml of Concanavalin A (Carbiochem) were added to the cultures; the above values relate to final concentration. The cultures were cultivated at 37° C. for 72 hours. Eight hours before the termination of the end of the cultivating period 0.5 μCi ^3 H thymidine (Chemapol. Czechoslovakia) was added to the samples. Incubation was stopped by freezing the cultures. After melting the samples were filtered on an automatic harvester (Dynatech). The radioactivity of the samples was measured in a scintillation counter. The activity was expressed as c.p.m. (Tables IV and V).
# human lymphocytes [4] = assay: NK activity, 51Cr release from K-562 tumor cells; assay type: cell-based; settings: for Cytotoxicity index, NK activity: 50:1, 4 hours, ± S.E.
# Method: (§1) Lymphocytes were separated on Ficoll-Uromiro (Boyum 1968) gradient from the venal blood of healthy donors and patients suffering from malignant lymphoma and metastatizing solid tumours, respectively. When selecting the patients belonging to the latter group, the decreased ADCC and NK activity was taken into consideration. The phagocytes were removed by treatment with iron powder and a magnet.
# NK activity was determined by the method of Jondal and Pross (1975) by using minor modifications (Lang et al, 1981). K-562 tumor cells labelled by ^51 Cr were incubated with effector cells in a TC 199 liquid nutrient medium comprising 10% of decomplemented calf serum. The reaction having been stopped the radioactivity of the superntant of the centrifuged cells (chrome release) was counted in a gamma-counter. The killing of the tumor cells (cytotoxicity index %) was expressed as the difference of the test release and spontaneous release.
# Ratio of effector cells: aimed cells = 50:1.
# Incubation time 4 hours.
# human lymphocytes [5] = assay: ADCC, 51Cr release from chicken erythrocytes; assay type: cell-based; settings: for Cytotoxicity index, ADCC: 5:1, 4 hours, n=10, ± S.E.
# Method: as §1
# ADCC was determined according to the method of Perlmann and Perlmann (1970) with minor modifications (Lang et al, 1981). Chicken erythrocytes labelled with 10^5 51 Cr and coated with anti-chicken erythrocyte rabbit-serum were incubated with the lymphocytes for 4 hours at 37° C. The reaction having been stopped the activity of the supernatant of the centrifuged cells was determined in a gamma-counter. The rate of chrome-release was expressed as the cytotoxicity index (CI %). This value was calculated as described in one of our earlier publications (Lang et al., 1980)--(see Table I).
# Effect on ADDC. Cytotoxicity index /%/.
# Ratio of effector cells; aimed cells = 5:1. Incubation time 4 hours.
# [6] = test system: human polymorphonuclear leucocytes; assay: Direct /random/ migration of human polymorphonuclear leucocytes on agarose microdrops; assay type: cell-based; settings: seven healthy controls, ± S.E.M.
# Method: Spontaneous (random) migration of leukocytes was measured on agarose microdrops according to the method of McCoy et al (1977) by carrying out some minor modifications (Kalmar and Gergely, 1982).
# […] agarose drops (0.2%) were placed on migration plates (Greiner, German Federal Republic). TC 199 liquid nutrient medium was added and the plates were air-tightly closed. After 24 hours the migration area were measured under a stereomicroscope. The migration area were expressed in mm^2.
# [7] = in vivo, 24 h
# NK-ly-ascites lymphoma = NK-ly-ascites lymphoma in vivo; set-up: species or system CFLP male mice
# [8] = Decreased ADCC, 6,7 × 10^-8 mole
# [9] = Decreased ADCC, 6,7 × 10^-9 mole
# [10] = Decreased ADCC, 6,7 × 10^-10 mole
structure (smiles),measurement,setting,value
"CC(C)N=C(NC(=N)N)SCCCCl [Example 35, N-aminoiminomethyl-N'-isopropyl-S-(3-chloropropyl)-isothiuronium bromide]",Antitumor effect,tumor cells,outstanding antitumor effect
"C=CCSC(=NCC)NC(=N)N [Example 34, N-aminoiminomethyl-N'-ethyl-S-allyl-isothiuronium chloride]",Immunostimulant effect,[1],medium (Medium effect is observed if the increase of cell number or activity over the control amounts to 20%)
same,Toxic effect,[2],0
same,Antitumor effect,tumor cells,outstanding antitumor effect
same,LD50 at 24 h,in vivo; ip,84 ± 7.6 mg/kg
same,LD50 at 24 h,in vivo; po,780 ± 62 mg/kg
"N=C(N)NC(=N)SCCCBr [Example 28, N-aminoiminomethyl-S-(3-bromo-propyl)-isothiuronium bromide]",Immunostimulant effect,[1],weak
same,Toxic effect,[2],0
same,Antitumor effect,tumor cells,outstanding antitumor effect
same,LD50 at 24 h,in vivo; po,980 ± 640 mg/kg
same,Antitumor effect of combination vs cytostatic agent alone,NK-yl ascites tumor,the antitumor effect was strengthened
same,Immunodepression of combination vs cytostatic agent alone,NK-yl ascites tumor,immunodepression decreased
"C=CCSC(=N)NC(=N)N [Compound A, N-/aminoiminomethyl/-S-allyl-isothiuronium salts (halogenides)]","Blastos transformation, average c.p.m.","human lymphocytes [3]; healthy controls n=6, Con A 25 μg/ml, dose 0.1 μg/ml",10564 c.p.m.
same,"Blastos transformation, average c.p.m.","human lymphocytes [3]; healthy controls n=6, Con A 25 μg/ml, dose 1.0 μg/ml",14089 c.p.m.
same,"Blastos transformation, average c.p.m.","human lymphocytes [3]; healthy controls n=6, Con A 25 μg/ml, dose 10.0 μg/ml",17038 c.p.m.
same,"Blastos transformation, average c.p.m.","human lymphocytes [3]; healthy controls n=6, PHA 2 μg/ml, dose 0.1 μg/ml",22233 c.p.m.
same,"Blastos transformation, average c.p.m.","human lymphocytes [3]; healthy controls n=6, PHA 2 μg/ml, dose 1.0 μg/ml",23156 c.p.m.
same,"Blastos transformation, average c.p.m.","human lymphocytes [3]; healthy controls n=6, PHA 2 μg/ml, dose 10.0 μg/ml",25404 c.p.m.
same,"Blastos transformation, average c.p.m.","human lymphocytes [3]; healthy controls n=6, PHA 10 μg/ml, dose 0.1 μg/ml",29969 c.p.m.
same,"Blastos transformation, average c.p.m.","human lymphocytes [3]; healthy controls n=6, PHA 10 μg/ml, dose 1.0 μg/ml",33826 c.p.m.
same,"Blastos transformation, average c.p.m.","human lymphocytes [3]; healthy controls n=6, PHA 10 μg/ml, dose 10.0 μg/ml",33790 c.p.m.
same,"Blastos transformation, average c.p.m.","human lymphocytes [3]; patients of decreased reactivity /tumor and SLE/ n=6, Con A 25 μg/ml, dose 0.1 μg/ml",1097 c.p.m.
same,"Blastos transformation, average c.p.m.","human lymphocytes [3]; patients of decreased reactivity /tumor and SLE/ n=6, Con A 25 μg/ml, dose 1.0 μg/ml",935 c.p.m.
same,"Blastos transformation, average c.p.m.","human lymphocytes [3]; patients of decreased reactivity /tumor and SLE/ n=6, Con A 25 μg/ml, dose 10.0 μg/ml",1023 ± 361 c.p.m.
same,"Blastos transformation, average c.p.m.","human lymphocytes [3]; patients of decreased reactivity /tumor and SLE/ n=6, PHA 2 μg/ml, dose 0.1 μg/ml",2877 c.p.m.
same,"Blastos transformation, average c.p.m.","human lymphocytes [3]; patients of decreased reactivity /tumor and SLE/ n=6, PHA 2 μg/ml, dose 1.0 μg/ml",4344 c.p.m.
same,"Blastos transformation, average c.p.m.","human lymphocytes [3]; patients of decreased reactivity /tumor and SLE/ n=6, PHA 2 μg/ml, dose 10.0 μg/ml",4716 ± 1287 c.p.m.
same,"Blastos transformation, average c.p.m.","human lymphocytes [3]; patients of decreased reactivity /tumor and SLE/ n=6, PHA 10 μg/ml, dose 0.1 μg/ml",5802 c.p.m.
same,"Blastos transformation, average c.p.m.","human lymphocytes [3]; patients of decreased reactivity /tumor and SLE/ n=6, PHA 10 μg/ml, dose 1.0 μg/ml",6323 c.p.m.
same,"Blastos transformation, average c.p.m.","human lymphocytes [3]; patients of decreased reactivity /tumor and SLE/ n=6, PHA 10 μg/ml, dose 10.0 μg/ml",6968 ± 1669 c.p.m.
same,Change of NK cytotoxicity index vs control,"human lymphocytes [4]; Decreased NK, 6.7 × 10^-9 mole/ml",+68%
same,"Cytotoxicity index, NK activity","human lymphocytes [4]; Decreased NK, 6.7 × 10^-9 mole/ml, n=7",25.3 ± 3.2%
same,Change of NK cytotoxicity index vs control,"human lymphocytes [4]; Decreased NK, 6.7 × 10^-10 mole/ml",+43%
same,"Cytotoxicity index, NK activity","human lymphocytes [4]; Decreased NK, 6.7 × 10^-10 mole/ml, n=7",21.6 ± 3.0%
same,Change of NK cytotoxicity index vs control,"human lymphocytes [4]; Decreased NK, third dose column (printed 6.7 × 10^-31 8)",+113%
same,"Cytotoxicity index, NK activity","human lymphocytes [4]; Decreased NK, third dose column (printed 6.7 × 10^-31 8) mole/ml, n=7",32.2 ± 3.2%
same,Change of NK cytotoxicity index vs control,"human lymphocytes [4]; Normal NK, 6.7 × 10^-9 mole/ml",+32%
same,"Cytotoxicity index, NK activity","human lymphocytes [4]; Normal NK, 6.7 × 10^-9 mole/ml, n=8",43.4 ± 2.7%
same,Change of NK cytotoxicity index vs control,"human lymphocytes [4]; Normal NK, 6.7 × 10^-10 mole/ml",+25%
same,"Cytotoxicity index, NK activity","human lymphocytes [4]; Normal NK, 6.7 × 10^-10 mole/ml, n=8",41 ± 2.9%
same,Change of NK cytotoxicity index vs control,"human lymphocytes [4]; Normal NK, third dose column (printed 6.7 × 10^-31 8)",+45%
same,"Cytotoxicity index, NK activity","human lymphocytes [4]; Normal NK, third dose column (printed 6.7 × 10^-31 8) mole/ml, n=8",47.6 ± 1.4%
same,Change of ADCC cytotoxicity index vs control,human lymphocytes [5]; [8],+264%
same,"Cytotoxicity index, ADCC",human lymphocytes [5]; [8],10.2 ± 2.7%
same,Change of ADCC cytotoxicity index vs control,human lymphocytes [5]; [9],+175%
same,"Cytotoxicity index, ADCC",human lymphocytes [5]; [9],7.7 ± 1.9%
same,Change of ADCC cytotoxicity index vs control,human lymphocytes [5]; [10],+126%
same,"Cytotoxicity index, ADCC",human lymphocytes [5]; [10],6.35 ± 1.7%
same,Change of ADCC cytotoxicity index vs control,"human lymphocytes [5]; Normal ADCC, 6,7 × 10^-8 mole",+62%
same,"Cytotoxicity index, ADCC","human lymphocytes [5]; Normal ADCC, 6,7 × 10^-8 mole",68.2 ± 5.3%
same,Change of ADCC cytotoxicity index vs control,"human lymphocytes [5]; Normal ADCC, 6,7 × 10^-9 mole",+52%
same,"Cytotoxicity index, ADCC","human lymphocytes [5]; Normal ADCC, 6,7 × 10^-9 mole",64 ± 5.8%
same,Change of ADCC cytotoxicity index vs control,"human lymphocytes [5]; Normal ADCC, 6,7 × 10^-10 mole",+39%
same,"Cytotoxicity index, ADCC","human lymphocytes [5]; Normal ADCC, 6,7 × 10^-10 mole",58.5 ± 5.2%
same,Migration area,"[6]; 0.1 μg/ml, non significant",10.51 mm^2
same,Migration area,"[6]; 1.0 μg/ml, p < 0.01",12.25 ± 1.58 mm^2
same,Migration area,"[6]; 10.0 μg/ml, p < 0.01",11.24 ± 1.69 mm^2
"N=C(N)NC(=N)SCCCCl [Example 15, N-Aminoiminomethyl-S-(3-Chloropropyl)-Isothiuronium Bromide]",Immunostimulant effect,[1],weak
same,Toxic effect,[2],0
same,Antitumor effect,tumor cells,outstanding antitumor effect
same,LD50 at 24 h,in vivo; po,1210 ± 180 mg/kg
same,Antitumor effect of combination vs cytostatic agent alone,NK-yl ascites tumor,the antitumor effect was strengthened
same,Immunodepression of combination vs cytostatic agent alone,NK-yl ascites tumor,immunodepression decreased
"C=CCSC(=NC1CCCCC1)NC(=N)N [Example 22, N-Aminoiminomethyl-N'-Cyclohexyl-S-Allyl-Isothiuronium Chloride]",Immunostimulant effect,[1],weak
same,Toxic effect,[2],0
same,LD50,[7]; ip,40 ± 6 mg/kg
same,LD50,[7]; po,400 ± 38 mg/kg
same,Activity against NK-ly-ascites tumor,NK-ly-ascites lymphoma; concentration below one-tenth of the LD50 value,active agains Nk-ly-ascites tumor in a concentration below one-tenth of the LD50 value
same,Survival rate and lifetime,NK-ly-ascites lymphoma; dose-dependant,increase survival rate and lifetime in a dose-dependant manner
same,Cytotoxical dose range,"NK-ly-ascites lymphoma; mouse, in vivo",40 to 160 mg/kg
same,LD50 at 24 h,in vivo; ip,65 ± 5.1 mg/kg
same,LD50 at 24 h,in vivo; po,450 ± 51 mg/kg
"C=C(C)CSC(=NC1CCCCC1)NC(=N)N [Example 38, N-aminoiminomethyl-N'-cyclohexyl-S-methallyl-isothiuronium chloride]",Antitumor effect,tumor cells,outstanding antitumor effect
"C=C(C)CSC(=NC(C)C)NC(=N)N [Example 36, N-aminoiminomethyl-N'-isopropyl-S-methallyl-isothiuronium chloride]",Antitumor effect,tumor cells,outstanding antitumor effect

# Source: patent publication US4710578A, “Isothiuronium salts” (Peremartoni Vegyipari Vallalat, priority 1984, dated 1987)
